In patent US9650339B2, “Inhibitors of histone demethylases” (Gilead Sciences, Inc., priority 2013, dated 2017):

Experiments:
KDM6A (UTX) = KDM6A (UTX) (Homo sapiens, UniProt O15550); assay: Histone lysine demethylase AlphaLISA assay, KDM6A; assay type: biochemical; settings: read-out: KDM6A HDME Inhibition IC50
In short: (§1)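 AlphaLISA demethylation readout: enzyme preincubated 10 min, then 10 min with compounds in 3% DMSO buffer, before biotinylated methyl-lysine histone peptide substrate with 25 μM L-Asc and 10 μM α-KG, room temperature. Acceptor beads then streptavidin donor beads added, dark incubation, plates read.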

KDM4C (JMJD2C) = target: T1, KDM4C (JMJD2C) (Homo sapiens, UniProt Q9H3R0); assay: Histone lysine demethylase AlphaLISA assay, KDM4C; assay type: biochemical; settings: read-out: KDM4C HDME Inhibition IC50
T1 sequence (Q9H3R0 1-349): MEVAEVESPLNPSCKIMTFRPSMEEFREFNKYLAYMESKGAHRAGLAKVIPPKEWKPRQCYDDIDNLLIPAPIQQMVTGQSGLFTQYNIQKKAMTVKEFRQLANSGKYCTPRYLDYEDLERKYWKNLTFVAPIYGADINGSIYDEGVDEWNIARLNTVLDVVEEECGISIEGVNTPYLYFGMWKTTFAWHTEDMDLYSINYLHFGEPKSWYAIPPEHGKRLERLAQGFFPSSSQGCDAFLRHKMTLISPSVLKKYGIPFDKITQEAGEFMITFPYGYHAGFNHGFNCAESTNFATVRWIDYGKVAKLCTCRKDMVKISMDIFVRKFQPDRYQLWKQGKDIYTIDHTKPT
In short: as §1

KDM5B = target: T2, KDM5B (Homo sapiens, UniProt Q9UGL1); assay: Histone lysine demethylase immunofluorescence assay, U2OS cells transfected with KDM5B; assay type: cell-based; settings: U2OS cells transfected with pCMVHA KDM5B; mark detected H3K4me2; 20 hours
T2 construct: (a.a. 1-752); host or cells: U2OS
T2 sequence (Q9UGL1 1-752): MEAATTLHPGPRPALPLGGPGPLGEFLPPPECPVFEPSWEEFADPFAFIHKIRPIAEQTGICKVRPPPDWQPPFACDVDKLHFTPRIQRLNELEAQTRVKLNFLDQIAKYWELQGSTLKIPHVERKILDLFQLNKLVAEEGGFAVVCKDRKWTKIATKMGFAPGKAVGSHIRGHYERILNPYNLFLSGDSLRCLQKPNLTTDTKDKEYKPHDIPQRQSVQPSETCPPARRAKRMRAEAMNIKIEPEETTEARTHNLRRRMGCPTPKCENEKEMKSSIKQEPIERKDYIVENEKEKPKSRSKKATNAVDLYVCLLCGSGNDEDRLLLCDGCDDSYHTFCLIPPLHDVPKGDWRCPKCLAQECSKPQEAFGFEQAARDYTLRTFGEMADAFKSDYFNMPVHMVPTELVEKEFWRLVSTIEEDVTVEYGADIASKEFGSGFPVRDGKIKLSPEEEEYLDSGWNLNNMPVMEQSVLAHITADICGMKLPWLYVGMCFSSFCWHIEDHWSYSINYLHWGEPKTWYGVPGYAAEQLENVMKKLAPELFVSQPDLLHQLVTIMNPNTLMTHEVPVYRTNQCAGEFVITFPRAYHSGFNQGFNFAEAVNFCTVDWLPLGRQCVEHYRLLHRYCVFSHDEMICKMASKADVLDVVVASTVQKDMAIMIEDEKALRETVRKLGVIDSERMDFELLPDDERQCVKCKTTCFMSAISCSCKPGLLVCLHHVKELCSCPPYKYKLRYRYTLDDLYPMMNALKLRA
Protocol: U2OS cells were seeded 24 hours before transfection. Transfection was performed with Fugene HD transfection reagent as recommended by the manufacturer. 6 hours after transfection, the cells were harvested and seeded into multi well plates into media containing compound. The media used was DMEM containing 10% FBS and pen/strep. 20 hours after incubation of cells with compounds, the cells were washed in PBS, harvested by fixation with formaldehyde 4% aqueous solution, and washed in PBS. Subsequently, the cells were permeabilized in PBS with 0.2% Triton X-100 for. Blocking was performed in PBS with 0.2% Triton X-100 and 5% FBS. The cells were incubated with primary antibodies in blocking solution over night at 4° C. The primary antibodies used in the assays were HA.11 (Covance, MMS-101P) and the antibody detecting the mark specified in the table below. After incubation with primary antibodies, the cells were washed with PBS, incubated with secondary antibodies (Alexa fluor 594 goat anti rabbit IgG, Invitrogen, A11012; Alexa flour 488 donkey anti mouse IgG, Invitrogen, A21202) and Hoechst, (Sigma, 33342) in blocking solution, and washed again with PBS. Finally, PBS was added and high throughput imaging and analysis were performed by an IN Cell Analyzer 1000 (GE Healthcare). The robot software analyzed individual cells and divided these into HA+ (transfected cells) and HA− (non-transfected cells). The IC50 values were based on an average measure of the staining of the mark specified in the table below in the transfected cells.

KDM6A (UTX), sequence (O15550 919-1401): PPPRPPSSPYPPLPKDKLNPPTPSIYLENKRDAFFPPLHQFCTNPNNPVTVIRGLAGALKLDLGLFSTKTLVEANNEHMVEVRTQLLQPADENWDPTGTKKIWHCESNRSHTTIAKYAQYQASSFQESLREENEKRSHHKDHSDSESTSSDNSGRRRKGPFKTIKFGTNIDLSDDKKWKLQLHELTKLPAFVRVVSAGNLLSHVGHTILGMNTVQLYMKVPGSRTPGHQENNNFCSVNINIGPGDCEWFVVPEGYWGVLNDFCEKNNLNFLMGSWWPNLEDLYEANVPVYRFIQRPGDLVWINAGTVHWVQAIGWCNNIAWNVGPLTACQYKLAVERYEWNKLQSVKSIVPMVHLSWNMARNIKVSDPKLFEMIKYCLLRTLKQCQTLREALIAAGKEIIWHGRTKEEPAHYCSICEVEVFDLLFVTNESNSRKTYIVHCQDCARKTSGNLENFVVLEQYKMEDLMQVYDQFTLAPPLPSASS

Row | Compound | IC50 (KDM6A (UTX)) [nM] | IC50 (KDM4C (JMJD2C)) [nM] | IC50 (KDM5B) [nM]
1 | CCN(CC)CCCCNCc1cc(CNC(=O)C(F)(F)F)ccn1 [Compound 1, N-{[2-({[4-(diethylamino)butyl]-amino}methyl)pyridin-4-yl]methyl}-2,2,2-trifluoroacetamide] | > 2500 | > 2500 | < 250
2 | CN(C)CCCNCc1cc(CN)ccn1 [Compound 3, [2-({[3-(dimethylamino)propyl]-amino}methyl)pyridin-4-yl]methanamine] | > 2500 | > 2500 | < 250
3 | CCN(CCN(C)C)C(=O)CNCc1cc(CN)ccn1 [Compound 4, 2-({[4-(aminomethyl)pyridin-2-yl]methyl}amino)-N-[2-(dimethylamino)ethyl]-N-ethylacetamide] | > 2500 | 250 to 2500 | < 250
4 | CCN(CC)CCCCNCc1cc(CN)ccn1 [Compound 5, [2-({[4-(diethylamino)butyl]-amino}methyl)pyridin-4-yl]methanamine] | > 2500 | > 2500 | < 250
5 | CCN(CC)CCCCN(Cc1cc(CNC(=O)C(F)(F)F)ccn1)C(=O)C(F)(F)F [Compound 6, N-[4-(diethylamino)butyl]-- 2,2,2-trifluoro-N-({4-[(trifluoroacetamido)-methyl]pyridin-2-yl}methyl)acetamide] | > 2500 | > 2500 | < 250
6 | NCc1ccnc(CNCCCCN2CCC2)c1 [Compound 7, [2-({[4-(azetidin-1-yl)butyl]amino}methyl)-pyridin-4-yl]-methanamine] | > 2500 | > 2500 | < 250
7 | CN(C)CCCCCNCc1cc(CN)ccn1 [Compound 8, [2-({[5-(dimethylamino)pentyl]-amino}methyl)pyridin-4-yl]methanamine] | > 2500 | > 2500 | < 250
8 | COc1ccccc1CN1CCC(NC(=O)CNCc2cc(CN)ccn2)CC1 [Compound 9, 2-({[4-(aminomethyl)pyridin-2-yl]methyl}amino)-N-{1-[(2-methoxyphenyl)methyl]-piperidin-4-yl}acetamide] | > 2500 | > 2500 | 250 to 2500
9 | CN(C)CCCCNCc1cc(CNC2CC2)ccn1 [Compound 10, N-{[2-({[4-(dimethylamino)butyl]-amino}methyl)pyridin-4-yl]methyl}-cyclopropanamine] | > 2500 | > 2500 | > 2500
10 | CC1CCCCN1CCCNCc1cc(CNC2CC2)ccn1 (stereo not drawn) [Compound 11, N-{[2-({[3-(2-methylpiperidin-1-yl)propyl]amino}methyl)-pyridin-4-yl]methyl}-cyclopropanamine] | > 2500 | > 2500 | > 2500
11 | CCCNCc1cc(CNC2CC2)ccn1 [Compound 12, N-({2-[(propylamino)methyl]-pyridin-4-yl}methyl)-cyclopropanamine] | > 2500 | > 2500 | > 2500
12 | CN(C)C(=O)CNCc1cc(CNCC#N)ccn1 [Compound 13, 2-{[(4-{[(cyanomethyl)amino]-methyl}pyridin-2-yl)methyl]amino}-N,N-dimethylacetamide] | > 2500 | > 2500 | 250 to 2500
13 | CN(C)C(=O)CNCc1cc(CNCCF)ccn1 [Compound 14, 2-{[(4-{[(2-fluoroethyl)amino]-methyl}pyridin-2-yl)methyl]amino}-N,N-dimethylacetamide] | > 2500 | 250 to 2500 | > 2500
14 | CN(C)CCNCc1ccnc(CNCC(=O)N(C)C)c1 [Compound 15, 2-({[4-({[2-(dimethylamino)ethyl]-amino}methyl)pyridin-2-yl]methyl}amino)-N,N-dimethylacetamide] | > 2500 | 250 to 2500 | 250 to 2500
15 | c1ccc(CN2CCC[C@H]2CNCc2cc(CNCC3CC3)ccn2)cc1 [Compound 16, {[(2S)-1-benzylpyrrolidin-2-yl]methyl}[(4-{[(cyclopropylmethyl)-amino]methyl}pyridin-2-yl)methyl]amine] | > 2500 | > 2500 | > 2500
16 | CNCc1ccnc(CNCCCN(C)Cc2ccccc2)c1 [Compound 17, benzyl(methyl){3-[({4-[(methylamino)methyl]-pyridin-2-yl)methyl)-amino]propyl}-amine] | > 2500 | 250 to 2500 | > 2500
17 | CN(C)CCNCc1cc(CNC(C#N)C2CC2)ccn1 (stereo not drawn) [Compound 21, 2-cyclopropyl-2-({[2-({[2-(dimethylamino)ethyl]-amino}methyl)pyridin-4-yl]methyl}amino)-acetonitrile] | > 2500 | > 2500 | 250 to 2500
18 | CC(C#N)NCc1ccnc(CNCCCN(C)C)c1 (stereo not drawn) [Compound 22, 2-({[2-({[3-(dimethylamino)propyl]-amino}methyl)pyridin-4-yl]methyl}amino)-propanenitrile] | > 2500 | > 2500 | < 250
19 | N#CCNCc1ccnc(CNCCCCN(Cc2ccccc2)C2CC2)c1 [Compound 23, 2-[({2-[({4-[benzyl(cyclopropyl)-amino]butyl}amino)-methyl]pyridin-4-yl}methyl)amino]-acetonitrile] | > 2500 | > 2500 | 250 to 2500
20 | CNC(C#N)c1ccnc(CNCCCN(C)C)c1 (stereo not drawn) [Compound 24, 2-[2-({[3-(dimethylamino)propyl]-amino}methyl)pyridin-4-yl]-2-(methylamino)-acetonitrile] | > 2500 | 250 to 2500 | < 250
21 | CN(C)CCC/N=C/c1ccnc(CNCCCN(C)C)c1 [Compound 37, [3-(dimethylamino)propyl]-({4-[{[3-(dimethylamino)propyl]-imino}methyl]pyridin-2-yl}methyl)amine] | – | > 2500 | < 250
22 | C(=N\C1CC1)/c1ccnc(CNCCCCN2CCC2)c1 [Compound 44, N-{[2-({[4-(azetidin-1-yl)butyl]amino}methyl)-pyridin-4-yl]methylidene}-cyclopropanamine] | > 2500 | < 250 | –
23 | CCN(CC)C(=O)CNCc1cc(/C=N/CCC2CCCCC2)ccn1 [Compound 57, 2-[({4-[[(2-cyclohexylethyl)imino]-methyl]pyridin-2-yl}methyl)amino]-N,N-diethylacetamide] | > 2500 | 250 to 2500 | –
24 | CCCCCCCC/N=C/c1ccnc(CNCC(=O)N(CC)CC)c1 [Compound 58, N,N-diethyl-2-[({4-[(octylimino)methyl]-pyridin-2-yl}methyl)amino]-acetamide] | > 2500 | 250 to 2500 | –
25 | CCN(CC)CCCCNCc1cc(/C=N/CCOC)ccn1 [Compound 60, [4-(diethylamino)butyl]-({4-[[(2-methoxyethyl)imino]-methyl]pyridin-2-yl}methyl)amine] | > 2500 | > 2500 | –
26 | CN(C)CCCCCNCc1cc(C=O)ccn1 [Compound 114, 2-({[5-(dimethylamino)-pentyl]amino}methyl)-pyridine-4-carbaldehyde] | – | 250 to 2500 | < 250
